Data: patent US20140050743A1, “BINDING PROTEINS TO INHIBITORS OF COAGULATION FACTORS” (BAYER INTELLECTUAL PROPERTY GMBH, priority 2011, published 2014)
Numbering of substitutions follows the chain as printed.

B1: HC_N31S (antibody, V domains shown)
VH: EVQLLESGGGLVQPGGSLRLSCAASGFTFSSAWMSWVRQAPGKGLEWVSYISSSGSTIYYADSVKGRFTISRDNSKNTLYLQMNSLRAEDTAVYYCAREGLWAFDYWGQGTLVTVTS
VL: QSVLTQPPSASGTPGQRVTISCTGSSSNIGAGYVVHWYQQLPGTAPKLLIYDNNKRPSGVPDRFSGSKSGTSASLAISGLRSEDEADYYCAAWDDRLNGPVFGGGTKLTVLGQ
B2: HC_A32Y (antibody, V domains shown)
VH: B1 VH with S31N, A32Y
VL: B1 VL

Tests used:
[1] = tested on: rivaroxaban (prothrombin time); assay: Reversal of rivaroxaban's effect on prothrombin time (PT) in vitro, human plasma; format: biochemical
Method: (§1) Citrated blood (0.11 M Na-citrate/blood, 1:9 v/v) was obtained from human donors by venipuncture or from anesthetized Wistar rats (Charles River) by aortic cannulation and centrifuged at 4000 g for 15 minutes for separation of platelet-poor plasma. […] Antidote was added to the Plasma-rivaroxaban mixture and incubated for another 10 minutes at room temperature. The PT assay was run using Recombiplastin (Instrumentation Laboratory) as tissue factor source on an AMAX 200 automated coagulometer (Trinity Biotech) according to manufacturer's instructions. The composition of the final assay volume is ⅓ plasma and ⅔ PT reagent. […] Data are given as means±sem from 5 experiments and represent final assay concentrations (Table 8 and FIGS. 7 and 8).

[2] = tested on: rivaroxaban (prothrombin time); assay: Reversal of rivaroxaban's effect on prothrombin time (PT) in vitro, rat plasma; format: biochemical
Method: as §1

[3] = ELISA-based activity assay of antibody variants with a competition step (300 nM rivaroxaban); format: binding; parameters: key: ++: Variants with an average ratio above wt plus 2×SD (standard deviation of the ratio) were considered as improved; −: variants with a ratio below wt minus 2×SD were considered as reduced in their binding affinity; +/−: All variants with a performance in between both thresholds; −−: Variants with average fluorescence counts below the negative control (non-expressing cells) plus 3×SD were considered as non-binding; conditions: Table 11: single and double amino acid substitutions within M18-G08, variant to wt ratio, 1-3 independent experiments
Method: To determine the activity of the mutated antibody variants on compound from Example 1K an equilibrium or dissociation limited ELISA assay format was used. Briefly, MTP plates (Nunc Maxisorp black, 460518) were coated with 4 μg/ml streptavidin (Calbiochem, 189730) diluted in coating buffer (Candor Bioscience GmbH, 121500) and incubated over night at 4° C. After washing with PBST, plates were blocked with 100% Smart Block (Candor Bioscience GmbH, 113500) in PBST for 1 h at room temperature and the washing step was repeated. […] After washing 10 μM Amplex Red (Invitrogen, A12222) were added and incubated for 10 to 30 min at room temperature followed by measurement of the fluorescence signal.
Provided in table 11 are several examples of single and/or double amino acid substitutions introduced into the heavy and/or the light chain of M18-G08 (wt). Performance of the variants was analyzed in quadruples in the ELISA with a competition step and the FXa deinhibition assay (FXa DIA). In the ELISA, averages were calculated and overall performance of variants was evaluated by comparing the variant to wt ratio from 1-3 independent experiments. […] Variants with average fluorescence counts below the negative control (non-expressing cells) plus 3×SD were considered as non-binding and marked with “−−”. […] Variants not analyzed are marked with “nd” (not determined). […]

[4] = tested on: rivaroxaban (FXa activity); assay: FXa de-inhibition assay (FXa DIA) of Fab variants; format: biochemical; parameters: key: ++: Variants with an average ratio above wt plus 2×SD were considered as improved; −−: variants with a ratio below wt minus 2×SD were considered as either reduced in their binding affinity or non-binding; +/−: All variants with a performance in between both thresholds; conditions: Table 11: single and double amino acid substitutions within M18-G08; FXa deinhibition assay; variant/wt ratio, 2-3 independent experiments
Method: Then, 7 μl of 28 nM FXa (Haematologic Technologies Inc., HCXA-0060) diluted in assay buffer (20 mM Tris, Merck 1.08382.2500; 100 mM NaCl, Merck 1.06404.5000; 2.5 mM CaCl2*2H2O, Merck 1.02382.1000; 0.1% bovine serum albumin, Sigma A4503; 0.1% PEG 8000, Sigma P2139) were added and enzyme activity was recorded over time by measuring the fluorescence signal at 440 nm using a micro plate reader e.g. Tecan Infinite F500. The fluorescence signal was integrated over time and ratios of variant to wild-type were compared.
Provided in Table 9 are several examples of single and/or double amino acid substitutions introduced into the heavy and/or the light chain of M14-G07 (wt). Performance of the variants was analyzed in quadruples in the ELISA without a competition step and the FXa deinhibition assay (FXa DIA). In the ELISA, averages were calculated and normalized to the respective average expression level. Overall performance of variants was evaluated by comparing the variant to wt ratio from 2-3 independent experiments. […] Variants with average fluorescence counts below the negative control (non-expressing cells) plus 3×SD were considered as non-binding and marked with “−−” with none of the variants fulfilling this criteria. In the FXa deinhibition assay averages were calculated and overall performance of variants was evaluated by comparing the variant to wt ratio from 2-3 independent experiments. […]

Molecule	PT prolongation by rivaroxaban (x control) ([1]; rivaroxaban 0.17 μM)	PT prolongation by rivaroxaban (x control) ([1]; rivaroxaban 0.33 μM)	PT prolongation by rivaroxaban (x control) ([2]; rivaroxaban 0.4 μM)	PT prolongation by rivaroxaban (x control) ([2]; rivaroxaban 0.8 μM)	ELISA [3]	FXa-DIA [4]
O=C(NC[C@H]1CN(c2ccc(N3CCOCC3=O)cc2)C(=O)O1)c1ccc(Cl)s1 [Rivaroxaban, 5-Chloro-N-({(5S)-2-oxo-3-[4-(3-oxo-4-morpholinyl)phenyl]-1,3-oxazolidin-5-yl}-methyl)-2-thiophenecarboxamide, reference compound]	1.8	2.2	1.9	2.6	–	–
B1	–	–	–	–	+/−	–
B2	–	–	–	–	++	++
